tested on: production of thromboxane B2 (TxB2); experiment: Inhibition of Eicosanoid Production by Plasma-depleted Blood: TxB2; type: cell-based; conditions: Homo sapiens, read-out: TxB2
Experimental: (§1) Compounds are evaluated for their ability to inhibit production of leukotriene B4 (LTB4) and thromboxane B2 (TxB2) upon stimulation of human plasma-depleted blood with formyl-methionyl-leucyl-phenylalanine (FMLP) and thrombin. LTB4 is produced by neutrophils and TxB2 by platelets stimulated at their respective receptors with FMLP and thrombin. The assay is carried out in 1 ml deep well polypropylene 96-well plates (Beckman). For the test, ten ml of blood is collected in EDTA at a final concentration of 1.5 mg/ml. Then, 40 ml glucose phosphate buffer containing 0.1% gelatin is added and the suspension centrifuged at 900 g for 10 minutes at room temperature. The supernatant is discarded and the cells washed once with 50 ml buffer before resuspending them in 50 ml Krebs-Ringers-Henseleit Buffer containing 0.1% gelatin, 1 mM CaCl2, 1.1 mM MgCl2 (KRH buffer). Working solutions of test compounds are made by dissolving the material in DMSO at 10 mM and diluting with appropriate amounts of KRH buffer. An agonist solution is made containing 1 µM FMLP (sigma) and 10 units/ml of thrombin in KRH buffer (Enzyme Research Labs). The blood cell suspension is first warmed to 37° C for 5 minutes and then mixed with cytochalasin B (sigma) at a final concentration of 2 µg/ml. In each well, 200 µl of the compound solution is incubated with 250 µl of the blood cell, cytochalasin B suspension at 37° C for 10 min. Stimulation of eicosanoid production is begun by adding 50 µl of the agonist solution. The mixture is then incubated for 2 min. before stopping the reaction by adding 50 µl of a solution containing 275 mM EDTA, 110 µM indomethacin (sigma) and 110 µM of the 5-lipoxygenase inhibitor, N-hydroxy-N-[3-[2-(2-propynylthio)phenyl]-2-propenyl]urea. Subsequently, the plate is centrifuged and an aliquot of the supernatant fluid removed for analysis of the eicosanoid content. The amount of LTB4 and TxB2 produced is determined by the use of a competitive enzyme immunoassay using commercial reagents from Cayman Chemical.

Compound | IC50 [nM]
O=C(c1ccccc1)c1c(-c2ccc(O)cc2)sc2cc(O)ccc12 [Compound A] | 4900
O=C(c1ccc(O)cc1)c1c(-c2ccc(O)cc2)sc2cc(O)ccc12 [Compound D] | > 9800

same assay, conditions: Homo sapiens; Plasma DPLTD Blood; stimulated with FMLP and thrombin; read-out: TxB2

Compound | IC50 [nM]
Oc1ccc(-c2cc3ccc(O)cc3s2)cc1 [Compound B] | 3300
COc1ccc(C(=O)c2c(-c3ccc(OC)cc3)sc3cc(OC)ccc23)cc1 [Compound C] | 2000 ± 600
O=C(c1ccc(-c2ccccc2)cc1)c1c(-c2ccc(O)cc2)sc2cc(O)ccc12 [Example 1] | 2400 ± 1200
O=C(c1cccc2ccccc12)c1c(-c2ccc(O)cc2)sc2cc(O)ccc12 [Example 2, 6-hydroxyphenyl-2-(p-hydroxyphenyl)-(benzo(B)thien-3-yl)(α-napthyl)methanone] | 4900 ± 2400
O=C(c1ccc2ccccc2c1)c1c(-c2ccc(O)cc2)sc2cc(O)ccc12 [Example 3, 6-hydroxyphenyl-2-(p-hydroxyphenyl)-(benzo(B)thien-3-yl)(β-napthyl)methanone] | 1400

biological target: T1, cytosolic 5-lipoxygenase (Homo sapiens, UniProt P09917); experiment: 5-Lipoxygenase (5-LPO) Assay; type: biochemical; conditions: inhibition of leukotriene B4; human neutrophil 20,000 x g supernatant; 5 minutes at 37°C
T1 construct: Cells are disrupted with sonication and the cytosolic fraction obtained by centrifugation at 20,000 x g; from tissue; host or cells: human peripheral blood neutrophils, 20,000 x g cytosolic supernatant
T1 sequence (P09917 1-674): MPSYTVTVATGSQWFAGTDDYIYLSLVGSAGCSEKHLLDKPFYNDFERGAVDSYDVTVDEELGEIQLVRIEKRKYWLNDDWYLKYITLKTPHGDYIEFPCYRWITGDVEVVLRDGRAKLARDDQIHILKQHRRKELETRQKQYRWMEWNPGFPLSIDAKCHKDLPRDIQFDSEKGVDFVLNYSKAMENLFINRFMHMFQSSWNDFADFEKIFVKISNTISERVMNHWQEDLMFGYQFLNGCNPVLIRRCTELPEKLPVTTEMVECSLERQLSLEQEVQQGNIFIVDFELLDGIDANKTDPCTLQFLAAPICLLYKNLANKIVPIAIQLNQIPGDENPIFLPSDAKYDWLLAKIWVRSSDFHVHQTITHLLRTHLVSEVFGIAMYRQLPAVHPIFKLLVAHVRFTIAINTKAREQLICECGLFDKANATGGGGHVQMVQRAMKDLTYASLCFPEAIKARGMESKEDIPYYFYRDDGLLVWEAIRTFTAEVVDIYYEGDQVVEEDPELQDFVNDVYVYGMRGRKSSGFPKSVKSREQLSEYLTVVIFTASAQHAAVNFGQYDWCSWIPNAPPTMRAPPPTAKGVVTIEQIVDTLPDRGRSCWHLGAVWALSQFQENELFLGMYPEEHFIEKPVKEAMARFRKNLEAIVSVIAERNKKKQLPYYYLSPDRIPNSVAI
Experimental: To determine the effect of compounds on 5-lipoxygenase activity, peripheral blood neutrophils are separated by density centrifugation as described (Marder et al., Prostaglandins Leukot. and Essent. Fatty Acids 46 , 265-270, 1992) and the cytosolic 5-lipoxygenase is prepared from isolated neutrophils according to a modification of Carter et al., (J. Pharmacol. Exp. Ther. 256 , 929-937 (1991)). Briefly, neutrophils are washed twice in buffer (in millimolar: PIPES, 10; BES, 10; and EDTA, 1; pH 6.8) and diluted to 2.5 x 10^7 cells/ml. Cells are disrupted with sonication and the cytosolic fraction obtained by centrifugation at 20,000 x g for 20 min. at 4°C. The resultant supernatant containing the cytosolic 5-lipoxygenase activity is stored frozen at -70°C prior to use. Compounds are evaluated for 5-lipoxygenase inhibitory activity. Varying concentration of compounds in 200 ml aliquots containing 50 ml of human 20,000 x g supernatant in assay buffer (in millimolar: PIPES, 10; BES, 10; EDTA, 1; NaCl, 100; ATP, 1.56; and CaCl2,, 2.5; pH 6.8) containing 3.0 mM AA are used. The reaction proceeds for 5 minutes at 37°C and is terminated upon the addition of 50 ml EDTA (250 mM). The percent inhibition of leukotriene B4 is determined for each concentration of test compound as compared to vehicle (containing no compound) control. […] Leukotriene B4 is determined by EIA.

Compound | IC50 [nM]
COc1ccc(C(=O)c2c(-c3ccc(OC)cc3)sc3cc(OC)ccc23)cc1 [Compound C] | > 10000

biological target: T2, cPLA2 (Homo sapiens, UniProt P47712); experiment: Chromogenic cPLA2 enzyme assay; type: biochemical; conditions: C-PLA2 Enzyme
T2 sequence (P47712 1-749): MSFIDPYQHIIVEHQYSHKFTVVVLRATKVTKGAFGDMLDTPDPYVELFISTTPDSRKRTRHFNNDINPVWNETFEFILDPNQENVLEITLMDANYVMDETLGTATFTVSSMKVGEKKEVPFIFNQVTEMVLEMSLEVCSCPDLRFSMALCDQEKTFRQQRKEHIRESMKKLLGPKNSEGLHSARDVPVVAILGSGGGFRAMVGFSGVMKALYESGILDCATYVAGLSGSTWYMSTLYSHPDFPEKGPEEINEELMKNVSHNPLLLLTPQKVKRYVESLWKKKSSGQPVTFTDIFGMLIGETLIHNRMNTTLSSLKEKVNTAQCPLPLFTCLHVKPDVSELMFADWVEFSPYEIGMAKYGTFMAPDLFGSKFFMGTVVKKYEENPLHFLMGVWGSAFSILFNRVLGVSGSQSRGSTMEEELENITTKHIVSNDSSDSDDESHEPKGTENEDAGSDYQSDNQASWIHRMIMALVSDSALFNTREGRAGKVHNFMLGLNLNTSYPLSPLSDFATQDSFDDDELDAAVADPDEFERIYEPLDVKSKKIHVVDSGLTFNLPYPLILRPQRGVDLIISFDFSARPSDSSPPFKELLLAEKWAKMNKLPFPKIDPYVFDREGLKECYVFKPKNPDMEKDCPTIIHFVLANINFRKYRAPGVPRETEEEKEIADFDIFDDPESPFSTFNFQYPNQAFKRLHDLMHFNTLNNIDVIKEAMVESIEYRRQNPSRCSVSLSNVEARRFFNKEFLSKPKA

Compound | IC50 [nM]
Oc1ccc(-c2cc3ccc(O)cc3s2)cc1 [Compound B] | > 200000
O=C(c1cccc2ccccc12)c1c(-c2ccc(O)cc2)sc2cc(O)ccc12 [Example 2, 6-hydroxyphenyl-2-(p-hydroxyphenyl)-(benzo(B)thien-3-yl)(α-napthyl)methanone] | > 200000

tested on: production of leukotriene B4 (LTB4); experiment: Inhibition of Eicosanoid Production by Plasma-depleted Blood: LTB4; type: cell-based; conditions: Homo sapiens, read-out: LTB4
Experimental: as §1

Compound | IC50 [nM]
O=C(c1ccccc1)c1c(-c2ccc(O)cc2)sc2cc(O)ccc12 [Compound A] | 500
O=C(c1ccc(O)cc1)c1c(-c2ccc(O)cc2)sc2cc(O)ccc12 [Compound D] | 1600

same assay, conditions: Homo sapiens; Plasma DPLTD Blood; stimulated with FMLP and thrombin; read-out: LTB4

Compound | IC50 [nM]
Oc1ccc(-c2cc3ccc(O)cc3s2)cc1 [Compound B] | 800
COc1ccc(C(=O)c2c(-c3ccc(OC)cc3)sc3cc(OC)ccc23)cc1 [Compound C] | 1500 ± 400
O=C(c1ccc(-c2ccccc2)cc1)c1c(-c2ccc(O)cc2)sc2cc(O)ccc12 [Example 1] | 2200 ± 400
O=C(c1cccc2ccccc12)c1c(-c2ccc(O)cc2)sc2cc(O)ccc12 [Example 2, 6-hydroxyphenyl-2-(p-hydroxyphenyl)-(benzo(B)thien-3-yl)(α-napthyl)methanone] | 200 ± 100
O=C(c1ccc2ccccc2c1)c1c(-c2ccc(O)cc2)sc2cc(O)ccc12 [Example 3, 6-hydroxyphenyl-2-(p-hydroxyphenyl)-(benzo(B)thien-3-yl)(β-napthyl)methanone] | 200

tested on: MCII cells; experiment: MCII Mast Cell Toxicity Assay (XTT); type: cell-based; conditions: Mus musculus, Mast cell, read-out: Toxicity
From the text: This toxicity assay is run in parallel with the MCII mast cell LTC4 assay and serves as an indicator of compound effects on the viability and metabolic activity of the MCII cells. This "toxicity" assay is based on the ability of dehydrogenase enzymes present in viable metabolically active cells to bioreduce the tetrazolium salt XTT yielding a colored, water soluble formazan product. (see, Roehm et al.) "An improved colorimetric assay for cell proliferation and viability utilzing the tetrazolium salt XTT. J. Immunol. Methods 142:257-65 (1991).
A duplicate polystyrene 96-well tissue culture plate (Costar) is set up with sensitized MCII cells, EM95 ascites, media and dilutions of the test compound as described above. The complete media is supplemented with concanavalin A induced culture supernatants from the mouse helper T cell clone D10.G4, as a source of mast cell growth factors.
Wells of the toxicity assay plate are pulsed with 25 µl XTT (Sigma) plus phenazine methosulfate (Aldrich) giving a final concentration of 0.2 mg/ml XTT and 25 µM phenazine methosulfate. The plates are incubated at 37° C in 10% CO2 for 4-12 hours and then production of the XTT formazan product determined by measuring the optical density of the wells at a wavelength of 450 nm. The positive control on each plate is stimulated MCII cells with dimethyl sulfoxide vehicle alone and the negative control is the same reaction mixture without cells. The background negative control value is subtracted from experimental and positive control values and the data are reported as percent of positive control.

Compound | IC50 [nM]
O=C(c1ccccc1)c1c(-c2ccc(O)cc2)sc2cc(O)ccc12 [Compound A] | 300

same assay, conditions: Mus musculus; MCII Mast Cell; XTT reduction, 4-12 hours; read-out: Toxicity

Compound | IC50 [nM]
Oc1ccc(-c2cc3ccc(O)cc3s2)cc1 [Compound B] | < 10000
O=C(c1ccc(-c2ccccc2)cc1)c1c(-c2ccc(O)cc2)sc2cc(O)ccc12 [Example 1] | > 10000
O=C(c1cccc2ccccc12)c1c(-c2ccc(O)cc2)sc2cc(O)ccc12 [Example 2, 6-hydroxyphenyl-2-(p-hydroxyphenyl)-(benzo(B)thien-3-yl)(α-napthyl)methanone] | > 10000
O=C(c1ccc2ccccc2c1)c1c(-c2ccc(O)cc2)sc2cc(O)ccc12 [Example 3, 6-hydroxyphenyl-2-(p-hydroxyphenyl)-(benzo(B)thien-3-yl)(β-napthyl)methanone] | > 10000

tested on: production of LTC4 by the cytokine dependent mast cell line MCII; experiment: MCII Mast Cell LTC4 Assay; type: cell-based, mouse; conditions: MCII Mast Cell; IgE-sensitized, stimulated with anti-mouse IgE EM95; read-out: LTC4
From the text: This assay measures the production of LTC4 by the cytokine dependent mast cell line MCII, stimulated by cross linking the high affinity Fc receptor for IgE (FcεR1).
The bone marrow derived, cytokine dependent mouse mast cell line MCII (Lilly Research Laboratories) is maintained in log phase growth in complete Dulbecco's' Modified Eagles Medium (GIBCO BRL) supplemented with fetal bovine serum (Hyclone), gentamicin, penicillin and streptomycin (GIBCO BRL) and using concanavalin A (ICN ImmunoBiologicals) induced culture supernatants from the mouse helper T cell clone D10.G4 (ATCC TIB 224) as a source of mast cell growth factors. The MCII cells are passively sensitized with mouse monoclonal IgE by incubation with an appropriate dilution of IgEL b4 (ATCC TIB 141) antibody ascites at 37° C for 60 minutes and then washed with Hank's Balanced Salt Solution (GIBCO BRL) to remove unbound IgE. The sensitized cells are then preincubated with drug in complete media for 10 minutes at 37° C in 96 well polypropylene plates (Costar). Each drug concentration is tested in triplicate at half log dilutions. The drug vehicle is dimethyl sulfoxide which is present at a final concentration of 0.32% in all wells.
There are 40,000 MCII cells per well in a final volume of 200 µl complete medium. The stimulated cells are incubated at 37° C for 10 minutes and then LTC4 production is stopped by addition of 25 µl of 180 mM EDTA to chelate extracellular Ca^++.
The amount of LTC4 produced is determined in a competitive enzyme immunoassay (EIA) using commercial reagents purchased from Cayman Chemical Co. In the EIA, free LTC4 in the sample competes with enzyme conjugated LTC4 for binding to immobilized anti-LTC4 antibody. The enzyme conjugated to LTC4 is acetylcholinesterase and Elman's reagent is the substrate for the enzyme. The concentration of LTC4 in the unknown sample is determined using a 4-parameter quadratic analysis of a standard curve generated by measuring the optical density resulting from the addition of known amounts of LTC4 to the EIA.
The positive control on each plate is stimulated MCII cells with dimethyl sulfoxide vehicle alone and the negative control is the same reaction mixture without cells. The background negative control value is subtracted from experimental and positive control values and the data are reported as percent of positive control.

Compound | IC50 [nM]
Oc1ccc(-c2cc3ccc(O)cc3s2)cc1 [Compound B] | 700
COc1ccc(C(=O)c2c(-c3ccc(OC)cc3)sc3cc(OC)ccc23)cc1 [Compound C] | 6700 ± 3000
O=C(c1ccc(-c2ccccc2)cc1)c1c(-c2ccc(O)cc2)sc2cc(O)ccc12 [Example 1] | 4400
O=C(c1cccc2ccccc12)c1c(-c2ccc(O)cc2)sc2cc(O)ccc12 [Example 2, 6-hydroxyphenyl-2-(p-hydroxyphenyl)-(benzo(B)thien-3-yl)(α-napthyl)methanone] | 500 ± 200
O=C(c1ccc2ccccc2c1)c1c(-c2ccc(O)cc2)sc2cc(O)ccc12 [Example 3, 6-hydroxyphenyl-2-(p-hydroxyphenyl)-(benzo(B)thien-3-yl)(β-napthyl)methanone] | 3900 ± 1800
CC(C)(C)c1ccc(C(=O)c2c(-c3ccc(O)cc3)sc3cc(O)ccc23)cc1 [Example 8] | 3500 ± 2100

same assay, conditions: Mus musculus, Mast cell, read-out: LTC4

Compound | IC50 [nM]
O=C(c1ccccc1)c1c(-c2ccc(O)cc2)sc2cc(O)ccc12 [Compound A] | 7100 ± 500
COc1ccc(-c2sc3cc(OC)ccc3c2C(=O)c2cc(OC)c(O)c(OC)c2)cc1 [Example 7A] | 1500 ± 300
Cc1ccc(C(=O)c2c(-c3ccc(O)cc3)sc3cc(O)ccc23)cc1 [Example 9] | 800 ± 500
Cc1cccc(C(=O)c2c(-c3ccc(O)cc3)sc3cc(O)ccc23)c1 [Example 10] | 1100 ± 200
O=C(c1cccc(O)c1)c1c(-c2ccc(O)cc2)sc2cc(O)ccc12 [Example 11] | 2700
CC(c1cc2ccccc2s1)N(O)C(N)=O (stereo not shown) [Zileuton, (I)-N-(1-benzo[B]thien-2-ylethyl)-N-hydroxyurea, reference compound] | 500 ± 300

Reference: patent EP0732331A1, “Novel benzothiophene compounds and methods for inhibiting lipoxygenase and leukotrienes” (ELI LILLY AND COMPANY, priority 1995, dated 1996)
